Assay results from PubChem BioAssay AID1963843 (Molecular Pharmacology Branch, DTP, NCI, 2024).

System: 616215-338-R-J1-PDC complex spheroid viability
Assay: Anticancer human tumor 616215-338-R-J1-PDC patient-derived colon adenocarcinoma cell line growth inhibition [POLQ]
Conditions: for IC50: curve of first compound; for viability, T/C: stronger effect = lower value
Description: Multicellular complex tumor spheroid response to Polymerase (POL) inhibitors (novobiocin, ART-558, RP6685) in combination with a variety of drugs and investigational agents in selected tumor cell lines
The POL inhibitors (novobiocin, ART-558, and RP6685) were evaluated both individually and in combination with standard of care and investigational anticancer small molecules within a complex spheroid model of solid tumors. . Complex spheroids include a stromal component modeled by human endothelial cells (HUVEC) and fibroblasts modeled by human mesenchymal stem cells (MSCs). The concentration ranges selected for each drug and investigational agent were based upon clinically achievable concentrations if the clinical Cmax of the agent was known.
Compounds. The drugs and investigational agents: novobiocin (NSC847541), ART-558 (NSC835418), RP-6685 (NSC848927), peposertib (NSC802822), ceralasertib (NSC780249), elimusertib (NSC800525), camonsertib (NSC841442), AZD-1390 (NSC803789), olaparib (NSC753686), talazoparib (NSC767125), rucaparib (NSC756644), sotorasib (NSC818433), MRTX-1133 (NSC836407), SN-38 (NSC673596), topotecan (NSC609699), epotoside (NSC141540), doxorubicin (NSC123127), gemcitabine (NSC613327), 5-fluorouracil (NSC19893), paclitaxel (NSC125973), vemurafenib (NSC761431), MSA-2 (NSC828583), SN-011 (NSC837082), adavosertib (NSC754352), prexasertib (NSC758257), carboplatin (NSC241240) and oxaliplatin (NSC266046), were obtained from the National Cancer Institute (NCI) Developmental Therapeutics Program Chemical Repository (21). The FDA-approved anticancer drug set is available from the Developmental Therapeutics Program at https://dtp.cancer.gov/organization/dscb/obtaining/. […] The stock solutions were prepared in dimethyl sulfoxide (DMSO, Sigma-Aldrich, St. Louis, MO, cat. D2650), except for the platinum compounds which were prepared in saline (Quality Biological, Gaithersburg, MD, cat. 114-055-101), at 800-fold the tested concentration and stored at -70 degrees C prior to their use. All drugs and investigational agents were tested over a range starting from a high concentration at or near the clinical Cmax and decreasing in half-log increments. If the clinical Cmax for an agent had not been determined, the highest concentration tested was 10 microM, except for SN-38, which was tested at a high concentration of 1 microM.
Cell Culture. All cells were maintained in an incubator at 37 degrees C and 5% CO2 with 95% humidity. The PDC lines were cultured according to standard operating procedures established by the NCI PDMR (https://pdmr.cancer.gov). Table 3 of the manuscript, lists the cell lines along with the number of the three cell types plated to form the mct-spheroids and media for tumor cell growth. After thawing, all PDC lines, except 997537-175-T-J1-PDC and 415267-285-R-J2-PDC, were cultured in Matrigel-coated flasks prepared with a working solution of 1X Ham's F-12 nutrient mix, without supplementation (Thermo Fisher Scientific, cat. 11765054), 100 U/mL penicillin-streptomycin (Thermo Fisher Scientific, cat. 15140122), and 2.5% Matrigel (Corning Inc., Corning, NY, cat. 354248) for the first three passages. The two PDC lines 997537-175-T-J1-PDC and 415267-285-R-J2-PDC were cultured on uncoated flasks. The 857933-349-R-J2-PDC line was cultured in 6C/Colon 1B media containing advanced DMEM/F-12 (Thermo Fisher Scientific, cat. 12634028), 10 mM HEPES (Thermo Fisher Scientific, cat. 15630080), 1X GlutaMAX supplement (Thermo Fisher Scientific, cat. 35050061), 0.1 mg/mL primocin (InvivoGen, San Diego, CA, cat. ant-pm-2), 10% defined fetal bovine serum, heat inactivated (HyClone Laboratories Inc., Logan, UT, cat. SH30070.03HI), 50% L-WRN conditioned media (ATCC, cat. CRL-3276), 1.25 mM N-Acetyl-L-cysteine (Sigma-Aldrich, cat. A9165), 10 mM nicotinamide (Sigma-Aldrich, cat. N0636), 1X B-27 supplement (Thermo Fisher Scientific, cat. 17504044), 1X N-2 supplement (Thermo Fisher Scientific, cat. […]

[1] = second compound 0.0316 µM, first compound 0.0316 µM
[2] = second compound 0.0316 µM, first compound 0.1 µM
[3] = second compound 0.0316 µM, first compound 0.316 µM
[4] = second compound 0.0316 µM, first compound 1 µM
[5] = second compound 0.1 µM, first compound 0.0316 µM
[6] = second compound 0.1 µM, first compound 0.1 µM
[7] = second compound 0.1 µM, first compound 0.316 µM
[8] = second compound 0.1 µM, first compound 1 µM
[9] = second compound 0.316 µM, first compound 0.0316 µM
[10] = second compound 0.316 µM, first compound 0.1 µM
[11] = second compound 0.316 µM, first compound 0.316 µM
[12] = second compound 0.316 µM, first compound 1 µM
[13] = second compound 1 µM, first compound 0.0316 µM
[14] = second compound 1 µM, first compound 0.1 µM
[15] = second compound 1 µM, first compound 0.316 µM
[16] = second compound 1 µM, first compound 1 µM
[17] = second compound 3.16 µM, first compound 0.0316 µM
[18] = second compound 3.16 µM, first compound 0.1 µM
[19] = second compound 3.16 µM, first compound 0.316 µM
[20] = second compound 3.16 µM, first compound 1 µM
[21] = second compound 10 µM, first compound 0.0316 µM
[22] = second compound 10 µM, first compound 0.1 µM
[23] = second compound 10 µM, first compound 0.316 µM
[24] = second compound 10 µM, first compound 1 µM
[25] = second compound 0.0316 µM, first compound 3.16 µM
[26] = second compound 0.0316 µM, first compound 10 µM
[27] = second compound 0.1 µM, first compound 3.16 µM
[28] = second compound 0.1 µM, first compound 10 µM
[29] = second compound 0.316 µM, first compound 3.16 µM
[30] = second compound 0.316 µM, first compound 10 µM
[31] = second compound 1 µM, first compound 3.16 µM
[32] = second compound 1 µM, first compound 10 µM
[33] = second compound 3.16 µM, first compound 3.16 µM
[34] = second compound 3.16 µM, first compound 10 µM
[35] = second compound 10 µM, first compound 3.16 µM
[36] = second compound 10 µM, first compound 10 µM
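Note: spheroids exposed to compounds for one week before readout.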
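Throughout, for viability, T/C: percent viability relative to DMSO vehicle wells taken as 100%.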

`C=CCn1c(=O)c2cnc(Nc3ccc(N4CCN(C)CC4)cc3)nc2n1-c1cccc(C(C)(C)O)n1` + Nc1ccc(C#CCN(C(=O)Cc2ncc(C(F)(F)F)cc2C(F)(F)F)c2ccc(F)cc2)nn1 was tested, and the IC50 (second compound 0.0316 µM) was 430 nM, the IC50 (second compound 0.1 µM) was 285 nM and the IC50 (second compound 0.316 µM) was 302 nM. It also gave an IC50 (second compound 1 µM) of 365 nM, an IC50 (second compound 3.16 µM) of 359 nM and an IC50 (second compound 10 µM) of 244 nM. The viability, T/C (second compound 0.0316 µM, first compound 0.00316 µM) was 102%, the viability, T/C (second compound 0.0316 µM, first compound 0.01 µM) was 98.7% and the viability, T/C [1] was 98.4%. For the same compound, the viability, T/C [2] was 96.9%, the viability, T/C [3] was 55.4% and the viability, T/C [4] was 35.4%. For the same compound, the viability, T/C (second compound 0.1 µM, first compound 0.00316 µM) was 102%, the viability, T/C (second compound 0.1 µM, first compound 0.01 µM) was 89.1% and the viability, T/C [5] was 96.8%. The viability, T/C [6] was 97.1%, the viability, T/C [7] was 45.3% and the viability, T/C [8] was 29.1%. For the same compound, the viability, T/C (second compound 0.316 µM, first compound 0.00316 µM) was 99.8%, the viability, T/C (second compound 0.316 µM, first compound 0.01 µM) was 111% and the viability, T/C [9] was 107%. The viability, T/C [10] was 83%, the viability, T/C [11] was 49.9% and the viability, T/C [12] was 28.1%. It also gave a viability, T/C (second compound 1 µM, first compound 0.00316 µM) of 98.9%, a viability, T/C (second compound 1 µM, first compound 0.01 µM) of 103% and a viability, T/C [13] of 100%. The viability, T/C [14] was 96.8%, the viability, T/C [15] was 53.2% and the viability, T/C [16] was 27.6%. It also gave a viability, T/C (second compound 3.16 µM, first compound 0.00316 µM) of 90%, a viability, T/C (second compound 3.16 µM, first compound 0.01 µM) of 97.9% and a viability, T/C [17] of 94.6%. For the same compound, the viability, T/C [18] was 87.9%, the viability, T/C [19] was 52.9% and the viability, T/C [20] was 27%. For the same compound, the viability, T/C (second compound 10 µM, first compound 0.00316 µM) was 79%, the viability, T/C (second compound 10 µM, first compound 0.01 µM) was 91.4% and the viability, T/C [21] was 91.1%. For the same compound, the viability, T/C [22] was 79.3%, the viability, T/C [23] was 41.4% and the viability, T/C [24] was 26.5%.
In the case of `CCc1cc2c(N3CCc4c(cc(Cn5ccnc5)cc4-c4cn(C)nc4C(F)(F)F)C3=O)cc(C)nc2c(OC)n1` + Nc1ccc(C#CCN(C(=O)Cc2ncc(C(F)(F)F)cc2C(F)(F)F)c2ccc(F)cc2)nn1, the IC50 (second compound 0.0316 µM) is reported as 2530 nM, the IC50 (second compound 0.1 µM) is reported as 2960 nM and the IC50 (second compound 0.316 µM) is reported as 2460 nM. The IC50 (second compound 1 µM) was 2410 nM, the IC50 (second compound 3.16 µM) was 2620 nM and the IC50 (second compound 10 µM) was 1420 nM. For the same compound, the viability, T/C [1] was 106%, the viability, T/C [2] was 108% and the viability, T/C [3] was 80.2%. It also gave a viability, T/C [4] of 62%, a viability, T/C [25] of 51% and a viability, T/C [26] of 38.5%. It also gave a viability, T/C [5] of 123%, a viability, T/C [6] of 101% and a viability, T/C [7] of 68.7%. It also gave a viability, T/C [8] of 60.9%, a viability, T/C [27] of 54.3% and a viability, T/C [28] of 40%. For the same compound, the viability, T/C [9] was 105%, the viability, T/C [10] was 111% and the viability, T/C [11] was 75.8%. For the same compound, the viability, T/C [12] was 61.5%, the viability, T/C [29] was 51.5% and the viability, T/C [30] was 40.1%. The viability, T/C [13] was 115%, the viability, T/C [14] was 108% and the viability, T/C [15] was 91.5%. The viability, T/C [16] was 57%, the viability, T/C [31] was 51.8% and the viability, T/C [32] was 41.9%. The viability, T/C [17] was 112%, the viability, T/C [18] was 111% and the viability, T/C [19] was 78.2%. For the same compound, the viability, T/C [20] was 63.6%, the viability, T/C [33] was 51.1% and the viability, T/C [34] was 38.4%. For the same compound, the viability, T/C [21] was 99.4%, the viability, T/C [22] was 98.2% and the viability, T/C [23] was 74.9%. For the same compound, the viability, T/C [24] was 53.3%, the viability, T/C [35] was 45.8% and the viability, T/C [36] was 41.4%.
`O=C(c1cc(Cc2n[nH]c(=O)c3ccccc23)ccc1F)N1CCN(C(=O)C2CC2)CC1` + Nc1ccc(C#CCN(C(=O)Cc2ncc(C(F)(F)F)cc2C(F)(F)F)c2ccc(F)cc2)nn1 showed an IC50 (second compound 0.0316 µM) greater than 10000 nM, an IC50 (second compound 0.1 µM) greater than 10000 nM and an IC50 (second compound 0.316 µM) of 8940 nM. It also gave an IC50 (second compound 1 µM) greater than 10000 nM, an IC50 (second compound 3.16 µM) greater than 10000 nM and an IC50 (second compound 10 µM) of 9490 nM. The viability, T/C [1] was 102%, the viability, T/C [2] was 99% and the viability, T/C [3] was 113%. For the same compound, the viability, T/C [4] was 99.9%, the viability, T/C [25] was 88.5% and the viability, T/C [26] was 55.5%. For the same compound, the viability, T/C [5] was 110%, the viability, T/C [6] was 94.7% and the viability, T/C [7] was 104%. For the same compound, the viability, T/C [8] was 94.1%, the viability, T/C [27] was 88.6% and the viability, T/C [28] was 66.9%. For the same compound, the viability, T/C [9] was 105%, the viability, T/C [10] was 103% and the viability, T/C [11] was 92.6%. The viability, T/C [12] was 88.3%, the viability, T/C [29] was 102% and the viability, T/C [30] was 44.8%. It also gave a viability, T/C [13] of 99.8%, a viability, T/C [14] of 97.6% and a viability, T/C [15] of 94.4%. The viability, T/C [16] was 103%, the viability, T/C [31] was 80% and the viability, T/C [32] was 55%. For the same compound, the viability, T/C [17] was 112%, the viability, T/C [18] was 107% and the viability, T/C [19] was 99.6%. It also gave a viability, T/C [20] of 93.3%, a viability, T/C [33] of 98.1% and a viability, T/C [34] of 54.1%. It also gave a viability, T/C [21] of 96.3%, a viability, T/C [22] of 88.7% and a viability, T/C [23] of 80.7%. The viability, T/C [24] was 79.7%, the viability, T/C [35] was 81.3% and the viability, T/C [36] was 47.9%.
